Measurements as given in PubChem BioAssay (NCI).
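48-hour exposure; five concentrations; linearly interpolated endpoints. The concentration for full growth arrest is given as TGI.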

Key:
Experiment in all cases: NCI-60 cell line screen, 48 h
[1] = system: HOP-62 NSCLC
[2] = system: IGROV1 ovarian
[3] = system: LOX IMVI melanoma
[4] = system: MDA-MB-231 breast
[5] = system: MDA-N
[6] = system: NCI-H522 lung
[7] = system: OVCAR-3 ovarian
[8] = system: OVCAR-4 ovarian
[9] = system: OVCAR-8 ovarian
[10] = system: PC-3 prostate
[11] = system: SK-MEL-2 melanoma
[12] = system: HCC-2998 colon

| Structure (SMILES) | TGI [1] [µM] | TGI [2] [µM] | TGI [3] [µM] | TGI [4] [µM] | TGI [5] [µM] | TGI [6] [µM] | TGI [7] [µM] | TGI [8] [µM] | TGI [9] [µM] | TGI [10] [µM] | TGI [11] [µM] | TGI [12] [µM] |
| --- | --- | --- | --- | --- | --- | --- | --- | --- | --- | --- | --- | --- |
| NCCCC(N)C(=O)O (centres undefined) | > 100 | > 100 | > 100 | > 100 | > 100 | > 100 | > 100 | > 100 | > 100 | > 100 | > 100 |  |
| COC(c1ccc(C(C)(C)C)cc1)(c1ccc(C(C)(C)C)cc1)c1cc(C(O)(c2cc(C(OC)(c3ccc(C(C)(C)C)cc3)c3ccc(C(C)(C)C)cc3)c(C)cc2C)c2cc(C(OC)(c3ccc(C(C)(C)C)cc3)c3ccc(C(C)(C)C)cc3)c(C)cc2C)c(C)cc1C | > 100 | > 100 | > 100 | > 100 | > 100 |  | > 100 | > 100 | > 100 | > 100 | > 100 | > 100 |
| CN1C(=O)CN(NC(=O)C2=C(O)c3ccc(Br)cc3S(=O)(=O)N2)C1=S | > 100 | > 100 | > 100 | > 100 | > 100 | > 100 |  | > 100 | > 100 | > 100 | > 100 | > 100 |
| CCOC(=O)c1c(SCCN2CCCC2)n(-c2ccccc2)c(=S)n(-c2ccccc2)c1=O | 36.6 | 4.47 | 3.79 | 4.4 | 6.01 | 4.08 | 3.35 | 27 | 4.29 | 3.14 | 28.4 | 3.53 |
| O=C(O)Cc1ccc2nc(COC(=O)c3ccccc3)sc2c1 | > 100 | > 100 | > 100 | > 100 | > 100 | > 100 | > 100 | > 100 | > 100 | > 100 | > 100 | > 100 |
| O=C1C(C=NCCc2c[nH]c3ccccc23)C(C(F)(F)F)=NN1c1nc2ccccc2s1 (centres undefined) | 46.9 | > 100 | 78.6 | > 100 | > 100 | 43.6 | 50.1 | 63 | > 100 | 97.8 | 77.7 |  |
| COc1ccc2c(c1)C(=O)c1ccccc1C2 | > 100 | > 100 | > 100 | 76.3 | > 100 | > 100 | > 100 | > 100 | > 100 | > 100 | > 100 | > 100 |
| CCN(CC)CCCn1c(=O)c2cccnc2n2c3c(=O)n(C)c(=O)n(C)c3nc12 | > 100 | > 100 | > 100 | > 100 | > 100 | > 100 | > 100 | > 100 | > 100 | > 100 | > 100 | > 100 |
| CC(C)c1c(P(=O)(c2ccccc2)c2ccccc2)n(C)c2ccccc12 | > 100 |  | > 100 | > 100 | > 100 | > 100 | > 100 | > 100 | > 100 | > 100 | > 100 | > 100 |
| CCn1c(=O)c2c3cc(O)ccc3oc2c2ccc(O)cc21 | > 100 | > 100 |  | > 100 | > 100 | 63.9 | > 100 | > 100 | > 100 | > 100 |  | 50.9 |
| O=C1C(Br)=Cc2c(Cl)sc(Cl)c21 | 28.6 | 7.67 | 5.84 | 8.91 | 8.7 | 11.7 | 12.1 | 8.81 | 33.3 | 6.83 | 32.3 | 7.71 |
| N#Cc1c(OCCF)c2ccccc2n2c1nc1ccccc12 | > 100 | > 100 | > 100 | > 100 | > 100 | > 100 | > 100 | 92 | > 100 | > 100 | > 100 | > 100 |
| CO/N=C1/c2sccc2[C@H](NC(=O)CNC(=O)OC(C)(C)C)[C@@H]1O | > 100 | > 100 | > 100 | > 100 | > 100 |  | > 100 | > 100 | > 100 | > 100 | > 100 | > 100 |
| O=C(O[C@H](/C=C/c1ccccc1)P1(=O)N(Cc2ccccc2)[C@@H]2CCCC[C@H]2N1Cc1ccccc1)c1ccccc1 | > 100 | 15.8 | 11.8 | 21 | > 100 | > 100 | 94.3 | 6.19 | > 100 | > 100 | 5.53 | > 100 |
| CN(O)C(=O)Cc1ccc(OCc2cccc(Cl)c2)cc1 | > 100 | > 100 | > 100 | > 100 | > 100 | > 100 | > 100 | > 100 | > 100 | > 100 | > 100 | > 100 |
| CCN(CCCN(CC)C(=O)N[C@@H](Cc1ccccc1)C(=O)NC)C(=O)N[C@@H](Cc1ccccc1)C(=O)NC | > 100 |  | > 100 | > 100 | > 100 | > 100 | > 100 | > 100 | > 100 | > 100 | > 100 | > 100 |
| CC1=CC=CC(C)(C)CC1(O[Si](C)(C)C)C(F)(F)F (centres undefined) | > 100 | > 100 | > 100 | > 100 | > 100 | > 100 | > 100 | > 100 | > 100 | > 100 | > 100 | > 100 |
| CC1CC(C#N)=C2NCCCCN2C1=O (centres undefined) | > 100 | > 100 | > 100 | > 100 | > 100 | > 100 | > 100 | > 100 | > 100 | > 100 | > 100 | > 100 |
| N#CSCc1cccc(Nc2cc(=O)[nH]c(=O)[nH]2)c1 | > 100 | > 100 | > 100 | > 100 | > 100 | > 100 | > 100 | > 100 | > 100 | > 100 | > 100 | > 100 |

| Structure (SMILES) | TGI [1] [µM] | TGI [2] [µM] | TGI [3] [µM] | TGI [4] [µM] | TGI [5] [µM] | TGI [6] [µM] | TGI [7] [µM] | TGI [8] [µM] | TGI [9] [µM] | TGI [10] [µM] | TGI [11] [µM] | TGI [12] [µM] |
| --- | --- | --- | --- | --- | --- | --- | --- | --- | --- | --- | --- | --- |
| C/C(=N/NC(=S)Nc1cccc(C)c1)c1ccccn1 | 4.98 | 4.68 | 9.93 | 2.45 | 3.61 | 7.23 | 0.118 | 8.93 | 2.33 | 7.68 | 4.42 | 4.18 |
| Cc1ccc(C(=O)Nc2ccc(CP(=O)(O)O)cc2)cc1NC(=O)c1cccc(NC(=O)Nc2cccc(C(=O)Nc3cc(C(=O)Nc4ccc(CP(=O)(O)O)cc4)ccc3C)c2)c1 | > 100 | > 100 | > 100 | > 100 | > 100 | > 100 | > 100 | > 100 | > 100 | > 100 | > 100 | > 100 |
| Cc1cc(O)cc(O)c1N=Nc1ccc([N+](=O)[O-])cc1 | > 100 | 66.3 | 84.8 | 47.4 | 83.9 | 14.5 | > 100 | 57 | > 100 | > 100 | 75.4 | 49 |
| CSc1c(C(=O)Nc2ccc(C)cc2)c(N)[nH]c(=O)c1C#N |  |  | > 100 | > 100 | > 100 | > 100 | > 100 | > 100 | > 100 | > 100 | > 100 | > 100 |
| O=C1NC(=S)NC(=O)C1C(c1ccccc1[N+](=O)[O-])C1C(=O)NC(=S)NC1=O | > 100 |  | > 100 | > 100 | > 100 | > 100 | > 100 | > 100 | > 100 | > 100 | > 100 |  |
| CC(C)/C(Cl)=N\OC(=O)NNc1ccccc1 | > 100 | > 100 | 36.9 | > 94.2 | > 100 | 28.7 | > 100 | > 100 | > 100 | > 100 | > 100 | > 100 |
| CCOC(=O)C1CC(O)C(=O)N1C (centres undefined) | > 100 | > 100 | > 100 | > 100 | > 100 |  | > 100 | > 100 |  | > 100 | > 100 | > 100 |
| C[C@]12CC/C(=N\O)C=C1CC[C@@H]1[C@@H]2CC[C@]2(C)C(=N/O)/C(=C/c3cccnc3)C[C@@H]12 | 85.5 | > 100 | 9.74 | 56.2 | 49.3 | 45.2 |  | 65.3 | 80.3 | > 100 | 97.8 |  |
| CN(C)c1ccc(/C(Br)=C2\OC(=O)c3ccccc32)cc1 | > 100 | > 100 | > 100 | > 100 | > 100 |  |  | > 100 | > 100 | > 100 | > 100 | > 100 |
| N#CC(C#N)=C1CCCS(=O)(=O)c2ccccc21 | > 100 | > 100 | > 100 | > 100 | > 100 |  | > 100 | > 100 | > 100 | > 100 | > 100 | > 100 |
| Cc1cc(C)c2c(n1)S(=O)(=O)N(CCCN1CCN(c3cccc(C(F)(F)F)c3)CC1)/C(=C(\O)c1ccc(Cl)cc1)C2=O | 37.1 | 16.2 | 17.6 | 18.7 | 15 | 14.8 | 18.9 | 15.1 | 29.5 | 13.6 | 16.8 |  |
| Cc1nc2cc(C(F)(F)F)ccc2[nH]c1=O | > 100 |  | > 100 | > 100 | > 100 |  | > 100 | > 100 | > 100 | > 100 | > 100 | > 100 |
| CC1=CC(=O)N(n2c(C)n[nH]c2=O)C1=O |  | > 100 | > 100 | > 100 | > 100 | > 100 | > 100 | > 100 | > 100 | > 100 | > 100 | > 100 |
| CCOC(=O)C(=O)N1C(C)=C(C(=O)OCC)CC(C(=O)OCC)=C1C | > 100 | > 100 | > 100 | > 100 | > 100 | > 100 | > 100 | > 100 |  | > 100 | > 100 | > 100 |
| O=C1N[C@@H]2c3c(csc3Br)C(=O)[C@@H]2O1 | > 100 | > 100 | 41.3 | > 100 | 67.6 | 68.3 | 47.8 |  | 57.6 | > 100 | > 100 | 39.1 |
| Cc1cccc(C[C@@]2(SCc3ccccc3)C(C)(C)[C@@H]3CC[C@@]2(C)C3)n1 | 60.2 | 28.7 | 30.2 | 28.5 | 60.2 | 29.1 | 29.5 |  | 30 | 35.7 | 27.8 | 28.8 |
| Cc1nc2ccc([N+](=O)[O-])cc2c(=O)n1C(=S)Nc1cccc(Cl)c1 | 44.6 |  | 35.3 | 37.1 | 39.4 |  | 58.1 | > 100 |  | 54.1 | 23.9 | 26 |
| COC(=O)C1CC(C=[N+](C)C)=C(SC)N1 (centres undefined) | > 100 | > 100 |  | > 100 | > 100 | > 100 | > 100 | > 100 | > 100 | > 100 | > 100 | > 100 |
| O=C(O)CNC(=O)c1ccc([As](=O)(O)O)cc1 | > 100 | > 100 | > 100 | > 100 | > 100 | > 100 | > 100 | > 100 | > 100 | > 100 | > 100 |  |
